Results published in patent US20090197853A1, “METHODS AND COMPOSITIONS OF TREATING CANCER” (priority 2005, published 2009).
“Also recorded” adds a separate entry of the source.

How the values were obtained:
[1] = tested on: metallothionein gene family members and ZnT1; assay: Northern blot analysis, A549 cultures; type: cell-based, human; conditions: for Metallothionein transcript levels: A549, 24 hours, 50 μM MGd, Zn(OAc)2 100 μM, CdCl2 50 μM, FIG. 2B
Method: Methods: Northern Blot Analysis—Plateau phase cultures of A549 cells were prepared as described above, except that T-25 flasks were used, and the number of cells initially plated scaled accordingly. Cultures were treated with 50 μM MGd, 5 μM Gd(OAc)3 or 5% mannitol for 4 hours, whereupon cultures were washed twice with PBS and RNA harvested as above. Alternatively, 7-day plateau phase A549 or PC3 cultures were treated with 50 μM MGd, 50-100 μM Zn(OAc)2, 50 μM CdCl2 or 5% mannitol for 24 hours (A549) or 4 hours (PC3) prior to washing and RNA analysis. Exponential phase Ramos cultures were treated for 6 hours. Northern blots were conducted and analyzed. Radio labeled metallothionein probe, designed to bind to a 113-bp region of 3′-UTR sequences from multiple metallothionein gene family members, was generated using 5′-[…]-3′ (forward) and 5′-[…]-3′ (reverse) PCR primers and the NEBlot kit (New England Biolabs, Inc.). Radio labeled ZnT1 probe was generated in a similar fashion using 5′-[…]-3′ (forward) and 5′-[…]-3′ (reverse) primers.

Ramos cells [2] = assay: Annexin-V apoptosis, Ramos; type: cell-based; conditions: single agent alone
Method: Methods: Annexin V/PI. Cells from exponential phase cultures were treated with MGd, zinc, or control (5% mannitol) solution for 24 or 48 hours. After incubation, cells were harvested and washed twice with a solution of 0.5% bovine serum albumin (BSA) in Hanks buffered saline (HBSS). An aliquot of cells (1×10^6) was added to 500 μL diluted binding buffer from the ANNEXIN-V PI Kit (BD Biosciences, San Jose, Calif.). Cells were pelleted, re-suspended in 100 μL of diluted binding buffer, and treated with the ANNEXIN-V PI reagent as per the manufacturer's protocol.

A549 cells [3] = assay: Intracellular free zinc (FluoZin-3 fluorescence), A549; type: cell-based, human; conditions: for Increase in cellular FluoZin-3 fluorescence: A549, MGd in the absence of actinomycin D
Method: (§1) Methods: The concentration of intracellular free zinc was assessed using the ion-specific fluorescent probe, FluoZin-3-AM™ (FluoZin-3, Molecular Probes, Inc.). […] Following treatment, cells were isolated by centrifugation. Cell pellets were washed and re-suspended in a solution of 0.5% BSA in PBS.

Thioredoxin reductase = assay: Lipoate reduction (thioredoxin reductase activity) in intact A549 cells; type: cell-based, human; conditions: for Inhibition of lipoate reduction: plateau phase A549, two-hour treatment
Method: Methods: Lipoate Reduction. Thioredoxin reductase activity was assessed by measuring the rate of lipoate reduction. In brief, A549 or PC3 cells (10,000 cells/well) were plated on 96-well plates and allowed to adhere overnight and grow two additional days until confluent. Cells were treated with MGd, zinc, or 5% mannitol for 2-4 hours, as indicated. Medium was removed, cells were washed with Hanks Balanced Salt Solution (HBSS), and a solution of 5 mM lipoic acid and 1 mM 5,5′-dithiobis(2-nitrobenzoic acid) in HBSS (100 μL/well) was added. Plates were incubated at ambient temperature in the dark. At chosen time intervals, plate absorbance was measured at 405-650 nm. Plate absorbances were normalized to wells containing neither exogenous zinc nor texaphyrin complex to allow plate-to-plate comparison. In some experiments, L-buthionine-[S,R]-sulfoximine (BSO, 100 μM) was added 24 hours prior to MGd or zinc treatment, to inhibit any contribution to lipoate reduction made by glutathione-dependent pathways (28). Actinomycin D (2.5 μg/mL) or cycloheximide (10 μg/mL), where present, was added 1 hour prior to texaphyrin or zinc treatment. Viability was checked on parallel plates using the tetrazolium dye 3-(4,5-dimethylthiazol-2-yl)-5-(3-carboxymethoxyphenyl)-2-(4-sulfophenyl)-2H-tetrazolium (MTS) following the manufacturers protocol (Promega Corp.).

A549 cells [4] = assay: Cell viability by propidium iodide exclusion, A549
Method: Methods: Cellular Viability. Cell viability was determined by using propidium iodide (PI) flow cytometric analysis. Cells from plateau phase cultures grown in T-25 flasks were harvested as described above, except that cells present in the growth medium and wash solution were isolated by centrifugation and included in the analysis. Cells were resuspended in 1 mL PBS, an aliquot of 3×10^5 cells transferred to a 4 mL tube, and the cells isolated by centrifugation. Cell pellets were resuspended in PBS supplemented with 2 μg/mL propidium iodide (Sigma), incubated for 5 minutes at ambient temperature, and subjected to flow cytometric analysis. Flow cytometry was performed on a FACSCalibur instrument and data were analyzed using the CellQuest Pro software package (BD Biosciences).

Ramos cells [5] = assay: Reactive oxygen species (DCFA to DCF), Ramos; type: cell-based; conditions: single agents
Method: Methods: Reactive oxygen species were measured in live cells as intracellular peroxides by monitoring the oxidation of 2′,7′-dichlorofluorescin-diacetate (DCFA) to 2′,7′-dichlorofluorescein (DCF) (Molecular Probes). Cells (1×10^6 per mL) were incubated in a solution of 1 μg per mL DCFA in 0.5% BSA in HBSS for 15 minutes at 37° C. Two mL additional 0.5% BSA in HBSS was added, cells were isolated by centrifugation, and the pellet re-suspended in a solution of 50 μg/mL 7-aminoactinomycin D (7-AAD) in 0.5% BSA in HBSS. Cell suspensions were incubated at ambient temperature for 2 to 3 minutes, and stored on ice until analysis. The fluorescent intensity in live (i.e., 7-AAD impermeable) cells was analyzed by flow cytometry.

Ramos cells [6] = assay: Intracellular free zinc (FluoZin-3 fluorescence), Ramos; type: cell-based; conditions: 10 μM MGd or 50 μM zinc alone
Method: as §1, with “Methods: Intracellular Free Zinc.” for “Methods:”

PC3 cells = assay: Colony forming assay, PC3; type: cell-based; conditions: 10 μM MGd, 75 μM zinc
[7] = tested on: Ramos, Raji, DB, DHL-4, HF-1, Jurkat, K562 and HL-60 cell lines; assay: Proliferation of hematologic cell lines; type: cell-based; conditions: for Effect on proliferation: low concentrations of zinc or MGd alone
Method: Cellular Proliferation—The proliferation of exponential phase cultures was assessed by colorimetric assay. In brief, 2×10^5 suspension cells per well were seeded on 96-well V-bottom microtiter plates. Stock solutions of control vehicle, MGd or Zn(OAc)2 in medium were added and plates were incubated at 37° C. under a 5% CO2/95% air atmosphere. After 24 hours, medium was replaced with fresh medium. After 2 additional days, medium was exchanged with fresh medium (150 μL/well) supplemented with 3-(4,5-dimethylthiazol-2-yl)-2,5-diphenyltetrazolium bromide (MTT, 0.5 mg/mL, Sigma Biochemical, St. Louis, Mo.). Plates were incubated at 37° C. and viable cells measured.

Structure (SMILES) | Metallothionein transcript levels [1] | Annexin-V signal (Ramos cells [2]) | Inhibition of lipoate reduction (Thioredoxin reductase) | DCF signal (Ramos cells [5]) | FluoZin-3 fluorescence (Ramos cells [6]; by 12 hours) | FluoZin-3 fluorescence (Ramos cells [6]; within 2 hours) | Surviving fraction (PC3 cells) | Effect on proliferation ([7]; all cell lines) | further results
CC(=O)[O-].CC(=O)[O-].CCc1c(CC)c2cc3nc(cnc4cc(OCCOCCOCCOC)c(OCCOCCOCCOC)cc4ncc4nc(cc1[n-]2)C(CCCO)=C4C)C(C)=C3CCCO.O.[Gd+3] [MGd, Motexafin gadolinium] | raised; also recorded: significant increase | No significant change | approximately 10% | increased DCF signal | returned to baseline levels | small increases | without effect | no significant effect | Induction of metallothionein gene family members and ZnT1 (Northern blot) ([1]; A549 plateau phase, 4 hours, 50 μM MGd or 5 μM Gd(OAc)3): confirmed the induction; also recorded: induced; Increase in cellular FluoZin-3 fluorescence (A549 cells [3]; serum medium): 1.2 fold; Increase in cellular FluoZin-3 fluorescence (A549 cells [3]; serum-free medium): 1.1 fold; Effect of MGd on inhibition of lipoate reduction by zinc (Thioredoxin reductase; A549): potentiated; Apparent inhibitory concentration of MGd (Thioredoxin reductase; A549, dose-dependent effect of MGd on inhibition with zinc): approximately 2.5 μM; Concentration above which the effect of MGd on lipoate reduction saturated (Thioredoxin reductase; A549, potentiation of zinc inhibition): approximately 5 μM; Effect of MGd on the cytotoxicity of CdCl2 (A549 cells [4]; A549 cells, FIG. 2A): attenuated; Effect of MGd on sensitivity to zinc (proliferation) ([7]; all cell lines): increased; Effect of MGd co-treatment on the inhibition of proliferation by zinc ([7]; all lines except HL60): potentiated the inhibition by zinc
CC(=O)[O-].CC(=O)[O-].[Zn+2] [Zn(OAc)2, Zinc acetate] | significant increase | No significant change | ≤ 30% | increased DCF signal | returned to baseline levels | small increases | without effect | no significant effect | Metallothionein transcript levels ([1]; listed as zinc): raised; Cell-associated fluorescence of FluoZin-3 at 530 nm (A549 cells [3]; A549, 4 hours, Zn(OAc)2 50-100 μM): significantly increased; Cellular viability (propidium iodide exclusion) (A549 cells [4]; A549, 24 hours, Zn(OAc)2 100 μM, CdCl2 50 μM, MGd 50 μM): no effect on cellular viability; Proliferation ([7]; 50 to 100 μM zinc, four additional B-cell lines, K562, Jurkat): inhibited the proliferation
